Patent US4434290A, “Pyrido (4,3-B) carbazoles substituted in the 1 position by a polyamine chain” (priority 1978, dated 1984)

Legend:
[1] = test system: cells of viro-induced leukemia of Friend; experiment: In vitro cytotoxic study on cells of the Friend leukemia of the mouse (Table XV); format: cell-based; details: for IC50 / IC100: Mus musculus, 24 h; for IC50: read-out: LD 50 (50% lethal dose); for IC100: read-out: LD 100 (100% lethal dose); for LD 50 HUM / LD 50 product: ratio to reference HUM
Protocol: "In vitro" cytotoxic study of the compounds of the invention on the cells of viro-induced leukemia of Friend in the mouse [J. Exp. Med. 1957, 105, p. 307-318].
The cells were grown in suspension in the RPMI 1640 medium [catalogue of GIBCO Bio-Cult-Ltd, Washington Road Sandyford Industrial Estate Paisley PA3 4EP Renfrewshire Scotland] supplement with 20% of embryonary calf serum, with penicillin and with streptopycin. The duplication time of the culture was about 11 hours. The growth factor is equal to 1 or very close to 1 (all the cells multiplying).
The cultures were seeded at times t=0 at the concentration of 2×10^5 cells per ml in Falcon dishes containing 4 ml of medium. 24 hours later, the product to be tested (in solution, in acetic water) was added, at the moment when the cells were in the exponential growth phase. 24 hours after the addition of the product, the cells were counted and the percentage of living cells determined by an exclusion test with trypan blue.

[2] = test system: HS5 cells; experiment: In vitro cytotoxic study on hamster cells converted by the virus of the hamster sarcoma, clone HS5 (Table XVI); format: cell-based; details: for IC (100 (complete growth inhibition, minimal)): Mesocricetus auratus, read-out: Minimal dose leading to a complete inhibition of the growth
Protocol: Cytotoxic "in vitro" study on hamster cells on leukemia L1210 cells of the serie. In particular, the line BHK 21 of hamster cells and a clone derived from this line were used, converted by the virus of the hamster sarcoma (clone HS5). […] STOKER and […] Virology, 14, 1961, 359]. After 5 hours, the cells were attached to a plastic support and the products to be tested whose solutions had been formed in water or in DMSO (dimethylsulphoxide) if the product was little soluble in water, was added. In the latter case a control was carried out with the same final concentration of DMSO in the culture medium. The state of the cells was examined 24, 48 and 72 hours later.

[3] = test system: C13/8 cells; experiment: In vitro cytotoxic study on hamster cells, complete inhibition of growth, C13/8 (Table XVI); format: cell-based; details: for IC (100 (complete growth inhibition, minimal)): Mesocricetus auratus, read-out: Minimal dose leading to a complete inhibition of the growth
Text: (§1) Cytotoxic "in vitro" study on hamster cells on leukemia L1210 cells of the serie.
In particular, the line BHK 21 of hamster cells and a clone derived from this line were used, converted by the virus of the hamster sarcoma (clone HS5).
After detachment by trypsin, the cells were placed under culture in plastic Petri dishes of 35 mm diameter at the concentration of 2.10^5 cells/dish, in a "Eagle" culture medium supplemented with "Bactotryptophosphate Broth Difco" and with 10% of calf serum [M. STOKER and I. MAC-PHERSON Virology, 14, 1961, 359].
(§2) After 5 hours, the cells were attached to a plastic support and the products to be tested whose solutions had been formed in water or in DMSO (dimethylsulphoxide) if the product was little soluble in water, was added. In the latter case a control was carried out with the same final concentration of DMSO in the culture medium.
(§3) The state of the cells was examined 24, 48 and 72 hours later.

[4] = test system: L1210 cells; experiment: In vitro cytotoxic study on leukemia L1210 cells, complete inhibition of growth (Table XVI); format: cell-based; details: for IC (100 (complete growth inhibition, minimal)): Mus musculus, read-out: Minimal dose leading to a complete inhibition of the growth
Protocol: as §1, §2, §3
In the case of the L1210 cells, the tests were carried out in a medium gelled with agarose, the L1210 cells growing in suspension.

[5] = test system: leukemia L1210; experiment: Leukemia L1210 in vivo, measurement of survival time (Table XII); design: species or system B6 D2 Fl (C 57 Bl/6×DBA/2) Fl mice; MST: unit not given here; details: 10^5 cells, i.p.
Protocol: The following pharmacological trials relate to the effects of the compounds of the invention on leukemia L1210 in vivo.
G. Proc. Nat. Acad. Sci. 1972, 69, 1042-1047 and Schepartz S., Screening 1971, Cancer Chemother. Part 3; Vol. 2, p. 3].
The properties were determined by the curative action inoculated experimental leukemia L1210. This leukemia was maintained on B6 D2 Fl (C 57 Bl/6×DBA/2) Fl mice in the proportion of 6 or 10 mice per experimental batch. The compounds to be tested were injected by the intraperitoneal route one or several days after inoculation of the cells (1 injection only). […] The death interval was determined, the first figure of the Table indicating the date of the first mouse death and the second the date of the last mouse death. The mean survival time was also measured (MST). A characteristic value is the percentage of increased life span (ILS %). This value (Cancer. Res. 1971, 31, 1883-1887) is the ratio: [formula] where S^t =survival of treated animals and
S^c =survival of control animals.

[6] = test system: cell cultures; experiment: Cytotoxicity in pharmacological tests (general statements); format: cell-based
[7] = L1210, medium gelled with agarose

SMILES | IC50 [1] [nM] | IC100 [1] [µM] | LD 50 HUM / LD 50 product [1] | IC (100 (complete growth inhibition, minimal)) [2] [µM] | IC (100 (complete growth inhibition, minimal)) [3] [µM] | further results
COc1ccc2[nH]c3c(C)c4ccnc(NCCN(C)C)c4cc3c2c1 [Compound 16] | 800 | 3 | 0.4 | 2 | 1 | –
COc1ccc2[nH]c3c(C)c4ccnc(NCCN)c4cc3c2c1 [Compound 11] | 100 | 0.25 | 3 | 1 | 1 | activity compared with HUM / known derivatives [1]: more active than the derivatives already known
COc1ccc2[nH]c3c(C)c4ccnc(NCCCN)c4c(C)c3c2c1 [Compound 25] | 120 | 0.3 | 3 | – | – | IC (100 (complete growth inhibition, minimal)) [4, 7]: 0.9 µM; activity compared with HUM / known derivatives [1]: more active than the derivatives already known; Death interval (mice) ([5]; 10 mg/kg, day +4): 12-13; ILS % ([5]; 10 mg/kg, day +4): 21.1%; MST ([5]; 10 mg/kg, day +4): 12.6; Death interval (mice) ([5]; 20 mg/kg, day +4): 8-12; MST ([5]; 20 mg/kg, day +4): 9.6
COc1ccc2[nH]c3c(C)c4ccnc(NCCCCN)c4cc3c2c1 [Compound 13] | 7000 | 15 | 0.04 | 2 | 2 | –
COc1ccc2[nH]c3c(C)c4ccnc(NCCCCCCN)c4cc3c2c1 [Compound 15] | 800 | 2 | 0.4 | 2 | 2 | –
CCN(CC)CCCNc1nccc2c(C)c3[nH]c4ccncc4c3cc12 [BD 40, reference compound] | – | – | – | – | – | Minimal dose leading to a complete inhibition of the growth [4, 7]: 0.2 μ M; Minimal dose leading to a complete inhibition of the growth [2]: 0.25 μ M; Minimal dose leading to a complete inhibition of the growth [3]: 0.25 μ M
CCN(CC)CCCC(C)Nc1nccc2c(C)c3[nH]c4ccc(OC)cc4c3cc12 (centres unmarked) [Compound 19] | 1300 | 3 | 0.2 | – | – | Death interval (mice) ([5]; 10 mg/kg, day +4): 11-16; ILS % ([5]; 10 mg/kg, day +4): 25%; MST ([5]; 10 mg/kg, day +4): 13; Death interval (mice) ([5]; 20 mg/kg, day +4): 11-16; ILS % ([5]; 20 mg/kg, day +4): 19.2%; MST ([5]; 20 mg/kg, day +4): 12.4
CCN(CC)CCCNc1nccc2c(C)c3[nH]c4ccc(OCc5ccccc5)cc4c3cc12 [Compound 24] | 3000 | 10 | 0.1 | – | – | IC (100 (complete growth inhibition, minimal)) [4, 7]: 0.4 µM; activity compared with the reference BD40 ([4]; summary of Table XVI): almost as active as the reference dipyrido-indole (BD40)
CCN(CC)CCCNc1nccc2c(C)c3[nH]c4ccc(OC)cc4c3cc12 [Compound 18] | 500 | 1.5 | 0.6 | 5 | 5 | Death interval (mice) ([5]; 20 mg/kg, day +3): 13-19; ILS % ([5]; 20 mg/kg, day +3): 38.8%; MST ([5]; 20 mg/kg, day +3): 16.1
Cc1c2ccnc(NCCCN)c2cc2c1[nH]c1ccc(OCc3ccccc3)cc12 [Compound 23] | 300 | 0.9 | 1 | – | – | –
COc1ccc2[nH]c3c(C)c4ccnc(NCCCCCN)c4cc3c2c1 [Compound 14] | 500 | 1.5 | 0.6 | 2 | 2 | –
Cc1c2cc[n+](C)cc2c(C)c2c1[nH]c1ccc(O)cc12 [HUM, 2-methyl-9-hydroxy ellipticinium acetate, reference compound] | 300 | 0.8 | – | – | – | –
COc1ccc2[nH]c3c(C)c4ccnc(N5CCCCC5)c4cc3c2c1 [Compound 21] | 35000 | 100 | 1.1 | > 5 | > 5 | cytotoxic activity [6]: not cytotoxic
COc1ccc2[nH]c3c(C)c4ccnc(NCCCN(C)C)c4c(C)c3c2c1 [Compound 26] | 400 | 1 | 0.75 | – | – | Death interval (mice) ([5]; 10 mg/kg, day +4): 12-16; ILS % ([5]; 10 mg/kg, day +4): 38.5%; MST ([5]; 10 mg/kg, day +4): 14.4; Death interval (mice) ([5]; 20 mg/kg, day +4): 16-19; ILS % ([5]; 20 mg/kg, day +4): 67.3%; MST ([5]; 20 mg/kg, day +4): 17.4
COc1ccc2[nH]c3c(C)c4ccnc(NCCCN)c4cc3c2c1 [Compound 12] | 250 | 0.7 | 1.5 | 2 | 2 | –
COc1ccc2[nH]c3c(C)c4ccnc(NCCCN(C)C)c4cc3c2c1 [Compound 17] | 1500 | 3 | 0.2 | 2 | 1 | –
CCN(CC)CCCNc1nccc2c(C)c3[nH]c4ccc(O)cc4c3cc12 [Compound 29] | 17 | 0.04 | 18 | – | – | activity compared with HUM / known derivatives [1]: more active than the derivatives already known; Death interval (mice) ([5]; 10 mg/kg, day +4): 15-17; ILS % ([5]; 10 mg/kg, day +4): 55.8%; MST ([5]; 10 mg/kg, day +4): 16.2; Death interval (mice) ([5]; 20 mg/kg, day +4): 10-15; ILS % ([5]; 20 mg/kg, day +4): 19.2%; MST ([5]; 20 mg/kg, day +4): 12.4
